“And” between values parts separate entries of the source, which are not always exact repeats. Identical values can stand only once.
How the values were obtained:
Assay type in all cases: cell-based
human TLR2 [1] = target: T1, human TLR2 (Homo sapiens (Human), UniProt O60603); experiment: HEK-Blue hTLR2 antagonism assay (SEAP reporter), agonist Pam3CSK4; settings: HEK-Blue hTLR2 cells; Pam3CSK4 (TLR1/2 agonist) at approx. 3×EC50; 18 h; 8-point dilutions
Procedure: (§1) Synthetic diacylated lipoprotein (Pam2CSK4, TLR2/6 agonist) and synthetic triacylated lipoprotein (Pam3CSK4, TLR1/2 agonist) were obtained from InvivoGen and were dissolved in endotoxin-free water to a concentration 1 mg/mL, vortexed until complete solubilization, and stored in aliquots at −20° C. Prior to addition to cells, an aliquot of the dissolved ligand was vortexed shortly and then was diluted in medium to 25 ng/mL Pam2CSK4 or 1000 ng/mL Pam3CSK4.
(§2) Test compounds were solubilized fresh to 10-20 mM stocks in DMSO and sonicated for 5-10 minutes in a water bath sonicator. Serial dilutions were prepared in DMSO, and then diluted in medium. The final concentration of DMSO used in the assay was 1%.
(§3) HEK-Blue hTLR2 reporter cells (InvivoGen) are HEK-293 cells stably expressing both the human TLR2 gene and a secreted embryonic alkaline phosphatase (SEAP) reporter construct downstream of NFκB promotor sites. HEK-Blue hTLR2 reporters were cultured according to manufacturer's protocol using Dulbecco's Modified Eagle Medium (DMEM; Gibco) containing 1× GlutaMax (Gibco), 10% heat-inactivated Fetal Bovine Serum (Gibco), Pen-Strep (50 U/mL penicillin, 50 μg/mL streptomycin, Gibco), 100 μg/mL Normocin (InvivoGen), and the selective antibiotic, lx HEK-Blue Selection (InvivoGen). Quanti-Blue reagent (InvivoGen) for detection and quantification of secreted alkaline phosphatase was dissolved in 100 mL of endotoxin-free water, warmed to 37° C. for 30 minutes and then filtered using a 0.2 μm membrane.
(§4) On day 1, 50 μL of each test compound dilution in duplicates or a vehicle control was added to each well of a 96-well plate followed by addition of 150 μL of HEK-Blue hTLR2 cell suspension (1×10^5 cells/well) and incubated at 37° C./5% CO2 for 2 h. Next, 50 μL of an approximate 3×EC50 concentration of each agonist (Pam2CSK4 or Pam3CSK4) was added to the wells containing test compounds or the vehicle control. The plates were then incubated at 37° C./5% CO2 for 18 h. For each assay run, non-treated HEK-Blue hTLR2 cells were treated with serial dilutions of agonists to determine EC50 values for the respective run.
(§5) On day 2, secreted alkaline phosphatase (SEAP) activity was detected in cell culture supernatants. In brief, 20 μL was collected from each well and transferred to a 96-well plate. Next, 200 μL of Quanti-Blue detection reagent was added to each well. Plates were incubated at room temperature for 15 min and SEAP activity was assessed by spectrophotometer OD reading at 655 nm. […] IC50 values were calculated based on 8-point dilutions for each compound.

human TLR2 [2] = target: T1, human TLR2; experiment: HEK-Blue hTLR2 antagonism assay (SEAP reporter), agonist Pam2CSK4; settings: HEK-Blue hTLR2 cells; Pam2CSK4 (TLR2/6 agonist) at approx. 3×EC50; 18 h; 8-point dilutions
Procedure: as §1, §2, §3, §4, §5

human TLR9 = human TLR9 (Homo sapiens (Human), UniProt Q9NR96); experiment: HEK-Blue hTLR9 antagonism assay (SEAP reporter), agonist ODN 2006; settings: HEK-Blue hTLR9 cells; ODN 2006 (TLR9 agonist) at approx. 3×EC50; 18 h; exact values 8-point, approximate (~ or <) 4-point dilutions; read-out: IC50 (μM) with ODN2006
Procedure: Synthetic ODNs (ODN 2006 (ODN 7909), class B CpG oligonucleotide, TLR9 agonist) was obtained from InvivoGen and was dissolved in endotoxin-free water to a concentration 500 μM, vortexed until complete solubilization, and stored in aliquots at −20° C. Prior to addition to cells, an aliquot of the dissolved ligand was vortexed shortly and then was diluted in medium to 50 μM.
as §2
as §3, with “hTLR9” for “hTLR2”, “TLR9” for “TLR2”, “hTLR9 cells” for “hTLR2 reporters”, “antibiotics, 10 μg/mL Blasticidin (InvivoGen), and 100 μg/mL Zeocin” for “antibiotic, lx HEK-Blue Selection”
as §4, with “hTLR9” for “hTLR2”, “TLR9 agonist, ODN 2006,” for “each agonist (Pam2CSK4 or Pam3CSK4)”, “vehicle-treated” for “non-treated”, “agonist” for “agonists”
On day 2, secreted alkaline phosphatase (SEAP) activity was detected in cell culture supernatants. In brief, 30 μL was collected from each well and transferred to a 96-well plate. Next, 200 μL of Quanti-Blue detection reagent was added to each well. Plates were incubated at 37° C. for 60 min. and SEAP activity was assessed by spectrophotometer OD reading at 655 nm. […] Exact IC50 values were calculated based on 8-point dilutions for each compound. Approximate IC50 values (˜ or <) were calculated based on 4-point dilutions for each compound.

T1 sequence (O60603 21-784): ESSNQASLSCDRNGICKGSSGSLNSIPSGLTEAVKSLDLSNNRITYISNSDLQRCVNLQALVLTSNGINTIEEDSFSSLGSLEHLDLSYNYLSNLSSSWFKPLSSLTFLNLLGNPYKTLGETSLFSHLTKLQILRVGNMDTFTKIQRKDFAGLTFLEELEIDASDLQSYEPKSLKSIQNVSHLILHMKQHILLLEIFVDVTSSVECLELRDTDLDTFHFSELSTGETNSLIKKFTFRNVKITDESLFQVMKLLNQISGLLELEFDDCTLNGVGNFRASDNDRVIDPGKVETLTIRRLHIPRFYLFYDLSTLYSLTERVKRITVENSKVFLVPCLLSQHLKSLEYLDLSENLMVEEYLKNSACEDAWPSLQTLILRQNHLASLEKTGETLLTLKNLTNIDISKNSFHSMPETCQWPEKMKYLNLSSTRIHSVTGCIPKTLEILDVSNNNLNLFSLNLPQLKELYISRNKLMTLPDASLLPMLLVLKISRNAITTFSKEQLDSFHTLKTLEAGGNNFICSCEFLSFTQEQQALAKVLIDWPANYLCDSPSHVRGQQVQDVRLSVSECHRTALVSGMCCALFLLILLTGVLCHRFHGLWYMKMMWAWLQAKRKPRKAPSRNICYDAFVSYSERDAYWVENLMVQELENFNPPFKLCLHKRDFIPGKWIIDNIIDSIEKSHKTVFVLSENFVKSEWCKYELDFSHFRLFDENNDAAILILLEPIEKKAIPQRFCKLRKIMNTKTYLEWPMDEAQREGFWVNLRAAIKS
human TLR9, sequence (Q9NR96 26-1032): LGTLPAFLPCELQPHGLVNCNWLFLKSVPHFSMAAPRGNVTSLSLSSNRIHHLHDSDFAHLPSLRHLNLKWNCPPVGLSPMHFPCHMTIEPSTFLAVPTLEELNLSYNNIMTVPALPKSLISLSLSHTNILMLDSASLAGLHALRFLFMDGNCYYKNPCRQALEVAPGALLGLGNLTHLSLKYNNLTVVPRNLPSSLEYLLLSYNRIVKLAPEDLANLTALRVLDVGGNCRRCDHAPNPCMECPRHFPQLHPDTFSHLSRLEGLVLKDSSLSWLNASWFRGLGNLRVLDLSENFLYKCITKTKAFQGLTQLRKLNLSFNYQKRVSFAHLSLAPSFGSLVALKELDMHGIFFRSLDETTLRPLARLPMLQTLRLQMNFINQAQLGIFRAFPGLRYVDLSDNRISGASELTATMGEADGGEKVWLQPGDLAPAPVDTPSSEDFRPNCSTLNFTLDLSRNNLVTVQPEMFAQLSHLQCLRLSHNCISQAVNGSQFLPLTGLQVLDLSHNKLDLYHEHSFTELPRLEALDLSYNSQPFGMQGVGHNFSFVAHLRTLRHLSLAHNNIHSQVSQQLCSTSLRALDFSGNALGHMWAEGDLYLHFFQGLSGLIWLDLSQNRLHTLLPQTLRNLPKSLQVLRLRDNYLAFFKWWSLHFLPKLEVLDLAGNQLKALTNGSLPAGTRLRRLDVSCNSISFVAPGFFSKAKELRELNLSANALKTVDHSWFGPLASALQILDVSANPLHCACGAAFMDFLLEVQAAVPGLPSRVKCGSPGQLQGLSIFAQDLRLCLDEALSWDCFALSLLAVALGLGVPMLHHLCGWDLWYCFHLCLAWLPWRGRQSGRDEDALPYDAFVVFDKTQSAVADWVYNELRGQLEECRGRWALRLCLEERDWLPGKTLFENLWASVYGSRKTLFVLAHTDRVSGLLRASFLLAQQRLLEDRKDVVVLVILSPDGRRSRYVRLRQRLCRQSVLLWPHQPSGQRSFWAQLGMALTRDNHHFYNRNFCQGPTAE

SMILES | IC50 (human TLR2 [1]) [µM] | IC50 (human TLR2 [2]) [µM] | IC50 (human TLR9)
O=Cc1cc(C(=O)Nc2nnc(-c3ccccc3)s2)cc(F)c1O [Compound 2, 3-fluoro-5-formyl-4-hydroxy-N-(5-phenyl-1,3,4-thiadiazol-2-yl)benzamide] | 2.2 | 6.7 | ~0.5 µM
O=Cc1cc(C(=O)Nc2cnc(N3CCCCC3)s2)cc(F)c1O [Compound 7, 3-fluoro-5-formyl-4-hydroxy-N-(2-(piperidin-1-yl)thiazol-5-yl)benzamide] | > 100 | > 100 | > 33 µM
O=Cc1cc(NC(=O)c2ncc(-c3ccccc3)s2)cc(F)c1O [Compound 10, N-(3-fluoro-5-formyl-4-hydroxyphenyl)-5-phenylthiazole-2-carboxamide] | 0.9 | 1.6 | ~1 µM
O=Cc1cc(C(=O)Nc2ncc(-c3ccc(F)cc3)s2)cc(F)c1O [Compound 11, 3-fluoro-N-(5-(4-fluorophenyl)thiazol-2-yl)-5-formyl-4-hydroxybenzamide] | 0.7 | 1 | 0.4 µM
CN1CCN(/N=C/c2cc(-c3nc(-c4ccc(N5CCCC5)nc4)ns3)cc(F)c2O)CC1 [Compound 165, 2-fluoro-6-(((4-methylpiperazin-1-yl)imino)methyl)-4-(3-(6-(pyrrolidin-1-yl)pyridin-3-yl)-1,2,4-thiadiazol-5-yl)phenol] | 0.9 | 1.1 | 0.41 µM
Oc1c(F)cc(-c2nc(-c3ccc(N4CCCC4)cc3)ns2)cc1/C=N/N1CCOCC1 [Compound 166, 2-fluoro-6-((morpholinoimino)methyl)-4-(3-(4-(pyrrolidin-1-yl)phenyl)-1,2,4-thiadiazol-5-yl)phenol] | 1 | 2.8 | 0.14 µM and 0.18 µM
O=Cc1cc(C(=O)Nc2nc(-c3ccc(N4CCCC4)cc3)ns2)cc(F)c1O [Compound 167, 3-fluoro-5-formyl-4-hydroxy-N-(3-(4-(pyrrolidin-1-yl)phenyl)-1,2,4-thiadiazol-5-yl)benzamide] | 0.6 | 1.5 | 0.5 µM
C[n+]1ccccc1Oc1c(F)cc(-c2nc(-c3ccc(N4CCCC4)cc3)ns2)cc1C=O [Compound 177, 2-(2-fluoro-6-formyl-4-(3-(4-(pyrrolidin-1-yl)phenyl)-1,2,4-thiadiazol-5-yl)phenoxy)-1-methylpyridinium iodide] | 0.6 | 1.6 | 
CN1C(=O)Oc2c(F)cc(-c3nc(-c4ccc(N5CCCC5)cc4)ns3)cc2C1O (stereo not drawn) [Compound 178, 8-fluoro-4-hydroxy-3-methyl-6-(3-(4-(pyrrolidin-1-yl)phenyl)-1,2,4-thiadiazol-5-yl)-3,4-dihydro-2H-benzo[e][1,3]oxazin-2-one] | 0.43 | 1.2 | 

The next lines start with the values.

IC50 (human TLR2 [1]) [µM] | IC50 (human TLR2 [2]) [µM] | IC50 (human TLR9) | SMILES
0.5 | 0.9 | 0.2 µM | O=Cc1cc(C(=O)Nc2ncc(-c3ccccc3)s2)cc(F)c1O [Compound 4, 3-fluoro-5-formyl-4-hydroxy-N-(5-phenylthiazol-2-yl)benzamide]
0.6 | 0.6 | 0.2 µM | O=Cc1cc(C(=O)Nc2ncc(-c3cccc(N4CCCC4)c3)s2)cc(F)c1O [Compound 12, 3-fluoro-5-formyl-4-hydroxy-N-(5-(3-(pyrrolidin-1-yl)phenyl)thiazol-2-yl)benzamide]
0.3 | 0.4 | 0.6 µM | O=Cc1cc(C(=O)Nc2cnc(N3CCCC3)c(C(F)(F)F)c2)cc(F)c1O [Compound 19, 3-fluoro-5-formyl-4-hydroxy-N-(6-(pyrrolidin-1-yl)-5-(trifluoromethyl)pyridin-3-yl)benzamide]
0.5 | 0.5 | 0.1 µM | O=Cc1cc(-c2cnn(-c3ccc(C(F)(F)F)cc3)c2)cc(F)c1O [Compound 127, 3-fluoro-2-hydroxy-5-(1-(4-(trifluoromethyl)phenyl)-1H-pyrazol-4-yl)benzaldehyde]
0.4 | 0.6 | 0.26 µM | CN1CCN(/N=C/c2cc(C(=O)N3CCC(c4ccc(N5CCCC5)cc4)CC3)cc(F)c2O)CC1 [Compound 163, (3-fluoro-4-hydroxy-5-(((4-methylpiperazin-1-yl)imino)methyl)phenyl)(4-(4-(pyrrolidin-1-yl)phenyl)piperidin-1-yl)methanone]
0.5 | 1.1 | 0.26 µM | O=C(c1cc(F)c(O)c(/C=N/N2CCOCC2)c1)N1CCC(c2ccc(N3CCCC3)cc2)CC1 [Compound 164, (3-fluoro-4-hydroxy-5-((morpholinoimino)methyl)phenyl)(4-(4-(pyrrolidin-1-yl)phenyl)piperidin-1-yl)methanone]
0.2 | 0.8 |  | COCCN1C(=O)Oc2c(F)cc(-c3nc(-c4ccc(N5CCCC5)cc4)ns3)cc2C1O (stereo not drawn) [Compound 179, 8-fluoro-4-hydroxy-3-(2-methoxyethyl)-6-(3-(4-(pyrrolidin-1-yl)phenyl)-1,2,4-thiadiazol-5-yl)-3,4-dihydro-2H-benzo[e][1,3]oxazin-2-one]
